# Experimental data reported in PubChem BioAssay (NCI).
#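 Values below derive from 48-hour exposures of cells grown in 96-well plates, with endpoints linearly interpolated between the two concentrations bracketing the appropriate inhibition level. Here, GI50 denotes the concentration required for 50% inhibition of growth. TGI marks complete inhibition of growth.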 Where a SMILES comes first, the peptide text is derived from it. [ ]: non-standard residue; d: D form. The star is where a group is joined. Bn2Val = CC(C)[C@@H](C(=O)*)N(Cc1ccccc1)Cc1ccccc1; NH(4-Cl-benzyl) = Clc1ccc(CN*)cc1; NMeV = CN[C@H](C(=O)O)C(C)C; dNMeA = CN[C@H](C)C(=O)O
# Key:
# Experiment in all cases: NCI-60 cell line screen, 48 h
# [1] = system: K-562 leukemia
# [2] = system: TK-10 renal
# [3] = system: UO-31 renal
# [4] = system: SK-OV-3 ovarian
# [5] = system: SK-MEL-5 melanoma
# [6] = system: NCI-H226 lung
# [7] = system: MDA-MB-435
# [8] = system: A549 NSCLC
# [9] = system: CAKI-1 renal
Compound,TGI [1] [µM],TGI [2] [µM],TGI [3] [µM],TGI [4] [µM],TGI [5] [µM],TGI [6] [µM],TGI [7] [µM],TGI [8] [µM],TGI [9] [µM],GI50 [1] [µM],GI50 [9] [µM],GI50 [3] [µM],GI50 [5] [µM],GI50 [7] [µM],GI50 [2] [nM],GI50 [4] [nM],GI50 [6] [nM]
C/C(=N\NC(=S)N(C)C)c1cccnn1,> 100,> 100,5.04,> 100,> 20.7,4.83,> 100,–,–,–,–,–,–,–,–,–,–
O=C1OC[C@H]2[C@@H]1[C@H]1O[C@@H]2C2=C(CCC2)C1=O,> 100,> 100,> 100,> 100,> 100,> 100,> 100,> 100,–,–,–,–,–,–,–,–,–
CN(Cc1cnc2nc(N)nc(N)c2n1)c1ccc(C(=O)NC(CO)CCCO)cc1 (stereo not given),> 100,> 100,> 100,> 100,> 100,> 100,> 100,–,> 100,–,–,–,–,–,–,–,–
COC[C@@H](N=Cc1ccc([N+](=O)[O-])cc1)C(C)C,> 100,> 100,> 100,> 100,–,–,> 100,> 100,> 100,–,–,–,–,–,–,–,–
CCCSc1ccc2[nH]c(N3C(=O)/C(=C/c4ccccc4)N=C3c3ccccc3)cc2c1,> 50,–,> 50,–,44.4,–,21.3,> 50,> 50,–,–,–,–,–,–,–,–
Cc1cc2c([nH]c3ccccc32)c(O)c1-c1c(C)cc2c([nH]c3ccccc32)c1O,25.9,31.2,25.7,–,30.1,36.5,28.2,26.8,27.9,12.3,14.7,13,16.5,15,–,–,–
Cc1cc(OC(=O)NCn2cc(-c3ccccc3)nn2)ccc1Cl,> 100,> 100,–,–,> 100,> 100,–,> 100,> 100,–,–,–,–,–,–,–,–
O=C1NC(=O)C(C(CC(=O)c2ccc(Cl)cc2)c2ccc(Cl)cc2)C(=O)N1 (stereo not given),> 100,–,> 100,–,> 100,> 100,> 100,> 100,–,–,–,–,–,–,–,–,–
COc1ccc(C(=O)CC(c2ccccc2)[C@H]2C(c3ccc(OC)cc3)=Nc3c(nc(SC)n(C)c3=O)NC2c2ccccc2)cc1 (stereo not given in full),> 100,> 100,–,> 100,> 100,> 100,> 100,> 100,> 100,–,–,–,–,–,–,–,–
C=CCC1C(O[Si](C)(C)C(C)(C)C)C(CO[Si](C)(C)C(C)(C)C)OC1n1ccc(=O)[nH]c1=O (stereo not given),–,–,2.83,–,2.91,3.02,4.33,2.91,–,–,–,–,–,–,–,–,–
C=CCP(=O)(CC=C)C(Cl)Cl,> 100,> 100,> 100,> 100,> 100,> 100,–,> 100,> 100,–,–,–,–,–,–,–,–
Cn1c(-c2ccc(/C=N/NC(=S)N/N=C/c3ccc(-c4c[n+]5ccsc5n4C)cc3)cc2)c[n+]2ccsc12,–,> 100,> 100,> 100,> 100,–,> 100,> 100,–,–,–,–,–,–,–,–,–
CC(C)[C@H](NC(=O)[C@H](C(C)C)N(Cc1ccccc1)Cc1ccccc1)C(=O)N(C)[C@H](C(=O)N1CCC[C@H]1C(=O)N(C)[C@H](C)C(=O)NCc1ccc(Cl)cc1)C(C)C (Bn2Val-V[NMeV]P[dNMeA]-{NH(4-Cl-benzyl)}),> 100,> 100,–,> 100,13.4,9.66,79.8,> 100,> 100,–,–,–,–,–,–,–,–
CC(C)(C)[Si](C)(C)OCc1cccc(OCCOc2cccc(CO[Si](C)(C)C(C)(C)C)c2[N+](=O)[O-])c1[N+](=O)[O-],–,> 100,> 100,> 100,> 100,> 100,> 100,> 100,> 100,–,–,–,–,–,–,–,–
C/C(=N\Nc1nc2cc(C(F)(F)F)ccc2s1)c1ccccn1,> 100,17.3,4.89,11.3,12.1,3.31,7.62,–,5.14,–,–,–,–,–,–,–,–
CN(C)Cc1cc(C(=O)/C=C/c2ccccc2)cc(CN(C)C)c1O,36.8,> 100,40.7,–,38.4,78.5,> 100,68.9,61.8,–,–,–,–,–,–,–,–
Cn1c(=O)oc2nc(-c3ccccc3)cc(C(F)(F)F)c21,–,> 100,> 100,> 100,> 100,> 100,> 100,> 100,> 100,–,–,–,–,–,–,–,–
Nc1nc(Cl)cc(NC23CC4CC(CC(C4)C2)C3)n1,> 100,–,> 100,> 100,–,> 100,> 100,> 100,> 100,–,–,–,–,–,–,–,–
N#Cc1cc2c(n(C3OC(CO)C(O)C(O)C3O)c1=S)CCCCCC2 (stereo not given),> 100,> 100,> 100,–,> 100,> 100,> 100,> 100,> 100,–,–,–,–,–,–,–,–
CCOC(=O)Nn1c(CC#N)nnc1Cc1ccccc1,> 100,> 100,> 100,–,> 100,> 100,> 100,> 100,> 100,–,–,–,–,–,–,–,–
CCOC(=O)c1cc(C)nc2c1c(=O)n(-c1ccccc1)c(=O)n2CCCCN1CCN(c2ccccc2)CC1,> 100,> 100,65.2,> 100,> 100,> 100,> 100,> 100,–,–,–,–,–,–,–,–,–
COc1ccc(Nc2ccc3ccccc3c2-c2c(O)ccc3ccccc23)cc1,54.4,75.3,26.4,–,32.6,30.5,20.3,–,31.7,–,–,–,–,–,–,–,–
c1ccc(/C(=N/Nc2ccncn2)c2ccccn2)cc1,> 100,–,67.3,75.7,> 100,96.2,> 100,> 100,> 100,–,–,–,–,–,–,–,–
Cc1nc(N)c(N2CCN(CN)CC2)c(=O)[nH]1,> 100,> 100,> 100,–,–,> 100,> 100,> 100,–,–,–,–,–,–,–,–,–
Cc1ccc(S(=O)CC(CF)OCn2cc(C)c(=O)[nH]c2=O)cc1 (stereo not given),–,> 100,> 100,> 100,> 100,> 100,> 100,> 100,> 100,–,–,–,–,–,–,–,–
CCN=C1C=CC(=C(c2ccc(N(CC)CC)cc2)c2ccc(N(CC)CC)cc2)c2ccccc21,–,1.13,–,0.601,0.133,1.61,0.428,–,0.273,–,0.0335,–,0.0363,0.0733,42.2,82.3,64
